Results from PubChem BioAssay (NCI).
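Growth conditions: 96-well plates. Treatment: test compound, 48 hours, 5 concentrations. Analysis: linear interpolation between bracketing concentrations; unreached endpoints set to highest concentration. GI50 marks 50% less growth. TGI denotes the concentration required for complete inhibition of growth.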

What was measured:
Experiment in all cases: inhibition of tumour cell growth, NCI panel, 48 h
IGROV1 ovarian = test system: IGROV1 ovarian
HOP-62 NSCLC = test system: HOP-62 NSCLC
HT29 colon = test system: HT29 colon
RXF 393 renal = test system: RXF 393 renal
HL-60(TB) leukemia = test system: HL-60(TB) leukemia
786-0 renal = test system: 786-0 renal
UACC-62 melanoma = test system: UACC-62 melanoma
MDA-MB-435 = test system: MDA-MB-435
COLO 205 colon = test system: COLO 205 colon
UACC-257 melanoma = test system: UACC-257 melanoma
MALME-3M melanoma = test system: MALME-3M melanoma

| SMILES | TGI (IGROV1 ovarian) | TGI (HOP-62 NSCLC) | TGI (HT29 colon) | TGI (RXF 393 renal) | TGI (HL-60(TB) leukemia) | TGI (786-0 renal) | TGI (UACC-62 melanoma) | TGI (MDA-MB-435) | TGI (COLO 205 colon) | TGI (UACC-257 melanoma) | TGI (MALME-3M melanoma) | GI50 (MALME-3M melanoma) | GI50 (HOP-62 NSCLC) | GI50 (HT29 colon) | GI50 (HL-60(TB) leukemia) | GI50 (MDA-MB-435) | GI50 (COLO 205 colon) | GI50 (UACC-257 melanoma) |
| --- | --- | --- | --- | --- | --- | --- | --- | --- | --- | --- | --- | --- | --- | --- | --- | --- | --- | --- |
| O=C(O)c1ccccc1N=Nc1c(O)c(S(=O)(=O)O)cc2cc(S(=O)(=O)O)ccc12 | > 100 µM | > 100 µM | > 100 µM | > 100 µM | > 100 µM | > 100 µM | > 100 µM | > 100 µM | > 100 µM | > 100 µM | – | – | – | – | – | – | – | – |
| COc1ccc(CNc2cc(=O)n(C)c(=O)[nH]2)cc1 | > 100 µM | > 100 µM | > 100 µM | > 100 µM | – | > 100 µM | > 100 µM | > 100 µM | > 100 µM | > 100 µM | > 100 µM | – | – | – | – | – | – | – |
| COc1ccc(Nc2ccc([N+](=O)[O-])cc2[N+](=O)[O-])cc1CN(CCCl)CCCl | – | 20.9 µM | 9.59 µM | – | 7.26 µM | – | – | 4.39 µM | 7.84 µM | 34.2 µM | 4.71 µM | 1.96 µM | 2.97 µM | 2.44 µM | 1.88 µM | 1.92 µM | 1.8 µM | 5.31 µM |
| CCCCCCCCCCCC[N+](CCCCCCCCCCCC)=C1SCCS1 | 23.4 µM | 30.5 µM | 12.8 µM | 14.8 µM | 12.1 µM | 11.8 µM | 22.9 µM | – | 20.4 µM | 21.3 µM | 19.1 µM | – | – | – | – | – | – | – |
| CO/N=C1/c2sccc2[C@H](NC(=O)C(Cc2ccccc2)NC(=O)OC(C)(C)C)[C@@H]1O (stereo not given in full) | > 100 µM | > 100 µM | > 100 µM | > 100 µM | > 100 µM | – | > 100 µM | > 100 µM | > 100 µM | > 100 µM | > 100 µM | – | – | – | – | – | – | – |
| CCOC(=O)c1c[nH]c2ccc3c(c2c1=O)S(=O)(=O)CC3 (tested in a mixture with another compound) | > 100 µM | > 100 µM | > 100 µM | > 100 µM | > 100 µM | – | > 100 µM | – | > 100 µM | > 100 µM | > 100 µM | – | – | – | – | – | – | – |
| CN(C)CCc1c2c(nc3ccccc13)C(=O)c1cccnc1C2=O | 2.14 µM | – | 8.35 µM | 1.26 µM | 0.365 µM | 0.759 µM | 0.738 µM | 1.15 µM | 4.91 µM | 1.03 µM | 1.79 µM | – | – | – | – | – | – | – |
| OC(c1cccnc1Cl)c1nc2ccccc2c2ccnc(Cl)c12 (stereo not given) | > 100 µM | 15.3 µM | > 100 µM | 35.4 µM | 12.5 µM | – | 23.7 µM | 4.89 µM | > 100 µM | > 100 µM | 78.2 µM | – | – | – | – | – | – | – |
| CC1(C)CC(=O)c2c(nc3c4c([nH]c(-c5ccc(Br)cc5)c24)CC(C)(C)C3)C1 | – | > 100 µM | > 100 µM | 65.3 µM | > 100 µM | 91 µM | > 100 µM | > 100 µM | 54.2 µM | > 100 µM | > 100 µM | – | – | – | – | – | – | – |
| Cc1cnc2c(c1C)C(=O)c1ccccc1C2=O | > 100 µM | > 100 µM | > 100 µM | > 100 µM | – | > 100 µM | – | 39.1 µM | > 100 µM | > 100 µM | – | – | – | – | – | – | – | – |
| O=C1NC2CCCCCC2C12CCCCC2 (stereo not given) | > 100 µM | > 100 µM | > 100 µM | > 100 µM | > 100 µM | – | > 100 µM | – | – | > 100 µM | > 100 µM | – | – | – | – | – | – | – |
| CSc1c(C#N)c(N)n(-c2ccc(Cl)cc2)c(=O)c1C#N | > 100 µM | – | > 100 µM | > 100 µM | > 100 µM | > 100 µM | > 100 µM | > 100 µM | > 100 µM | > 100 µM | > 100 µM | – | – | – | – | – | – | – |
| CCN(CC)c1nnc(CCCCCCCCc2nnc(N(CC)CC)o2)o1 | > 100 µM | > 100 µM | > 100 µM | > 100 µM | > 100 µM | > 100 µM | – | > 100 µM | > 100 µM | > 100 µM | > 100 µM | – | – | – | – | – | – | – |
| CCCc1[nH]c2ccccc2c1-c1c(CCC)[nH]c2ccccc12 | 32.4 µM | 32.2 µM | 22.2 µM | 37.6 µM | – | 31.4 µM | 34.8 µM | > 63.7 µM | 37.1 µM | 43.9 µM | 32.7 µM | – | – | – | – | – | – | – |
| CC1CC(C#N)=C2NCCN2C1=O (stereo not given) | > 100 µM | > 100 µM | > 100 µM | > 100 µM | > 100 µM | > 100 µM | – | 50.1 µM | 37.4 µM | > 100 µM | > 100 µM | – | – | – | – | – | – | – |
| CC(C)(CCC(C)(C)N1OC1c1ccccc1)N1OC1c1ccccc1 (stereo not given) | – | – | > 100 µM | – | 44.3 µM | > 100 µM | > 100 µM | > 100 µM | > 100 µM | > 100 µM | > 100 µM | – | – | – | – | – | – | – |
| COc1cc(Nc2nc3cc(C(F)(F)F)ccc3n3cccc23)cc(OC)c1OC | > 100 µM | > 100 µM | – | > 100 µM | > 100 µM | – | > 100 µM | > 100 µM | > 100 µM | > 100 µM | > 100 µM | – | – | – | – | – | – | – |
| CN1CCN(P2(=S)Oc3ccc4ccccc4c3-c3c(ccc4ccccc34)O2)CC1 | > 100 µM | > 78.9 µM | 49.8 µM | > 94.7 µM | 39.9 µM | – | > 100 µM | – | 28.8 µM | > 91.4 µM | 50.8 µM | – | – | – | – | – | – | – |
| Cn1c(=O)n2n(c1=O)C(C)(C13CC4CC(CC(C4)C1)C3)C13CC4CC(CC1C4)CC23 (stereo not given) | > 100 µM | > 100 µM | > 100 µM | – | > 100 µM | – | > 100 µM | > 100 µM | > 100 µM | > 100 µM | – | – | – | – | – | – | – | – |
| COC(=O)C(=O)Cc1nc2ccccc2o1 | – | > 100 µM | > 100 µM | > 100 µM | > 100 µM | – | > 100 µM | – | – | > 100 µM | > 100 µM | – | – | – | – | – | – | – |
| Nc1ncnc2c1ncn2[C@@H]1O[C@H](COC(c2ccccc2)(c2ccccc2)c2ccccc2)[C@@H](OC(=S)Oc2ccccc2)[C@@H]1F | 10.8 µM | 46 µM | 22.7 µM | 12.3 µM | 13.3 µM | 15.9 µM | 29.7 µM | 19.1 µM | 24.8 µM | 28.6 µM | – | – | – | – | – | – | – | – |
